Assay results reported in patent publication US8383640B2, “Substituted pyrimidine ether compounds and use thereof” (priority 2007, dated 2013).
Read-outs that look alike come from different tables or passages of the source.

What was measured:
[1] = system: rice blast; format: cell-based; conditions: in vitro, 24 hours incubation
[2] = system: tomato late blight; format: cell-based; conditions: in vitro, 25 mg/L, 24 hours incubation
[3] = system: corn rust; assay: Fungicidal activity in vivo, corn rust; conditions: 25 mg/L, plants sprayed, scored after 1 week
Experimental: (§1) Determination of Fungicidal Activity In Vivo:
(§2) Compounds were disolved into acetone to receive stock solution. Deionized water containing 0.1% Tween 80 was added in the previous solution to receive 20 ml test solution. Plants are sprayed by using a turntable sprayer. After 24 hours, plants were innoculated with a conidial suspension. Plants were then transferred into a dew chamber [R.H. (relative humidity)>95%] for infection. After this treatment, plants were removed from the chamber to the greenhouse for normal maintaining, After the infection period, the plants were placed in the greenhouse. After 1 week, the plants were scored for disease control.

[4] = system: cucumber anthracnose; assay: Fungicidal activity in vivo, cucumber anthracnose; conditions: plants sprayed, scored after 1 week
Experimental: as §1, §2

[5] = system: cucumber downy mildew; assay: Fungicidal activity in vivo, cucumber downy mildew; conditions: plants sprayed, scored after 1 week
Experimental: as §1, §2

[6] = system: carmine spider mite eggs; assay: Inhibition activity on carmine spider mite eggs; format: in vivo
[7] = system: nymph of carmine spider mite; assay: Control on nymph of carmine spider mite; format: in vivo
[8] = system: mite (Tetranychus cinnabarinus); assay: Acaricidal activity, airbrush spray, mite; conditions: mortality after 2-3 days
Experimental: Compounds were dissolved in mixed solvent (acetone: methanol=1:1), and diluted to required concentration with water containing 0.1% of Tween 80.
The second instar larvae of armyworm (Spodoptera exigua), diamond backmoth (Plutella xylostella), green peach aphids (Myzus persicae) and mite (Tetranychus cinnabarinus) were used in biological test. The method was employed either spraying by airbrush. A test solution (0.5 ml) was sprayed at the pressure of 0.7 kg/cm^2. Percent mortality was determined after 2-3 days.

[9] = system: diamond backmoth (Plutella xylostella); assay: Insecticidal activity, airbrush spray, diamond backmoth; format: in vivo; conditions: 600 mg/L, mortality after 2-3 days
[10] = system: armyworm (Spodoptera exigua); assay: Insecticidal activity, airbrush spray, armyworm; format: in vivo; conditions: 600 mg/L, mortality after 2-3 days
[11] = system: cucumber grey mold; assay: Fungicidal activity in vitro, cucumber grey mold; format: cell-based; conditions: 2.8 mg/L, 24 hours incubation
[12] = system: wheat powdery mildew; assay: Fungicidal activity in vivo, wheat powdery mildew; conditions: plants sprayed, scored after 1 week
Experimental: as §1, §2

SMILES	control of rice blast ([1]; 8.3 mg/L)	control of rice blast ([1]; 25 mg/L)	control of tomato late blight [2]	control of cucumber anthracnose ([4]; 25 mg/L)	control of cucumber anthracnose ([4]; 400 mg/L)	control of cucumber downy mildew ([5]; 400 mg/L)	control of mite ([8]; 600 mg/L)	also measured
COC=C(C(=O)OC)c1ccccc1COc1cc(C)nc(Nc2ccccc2)n1 [Compound 19]	100%	100%	100%	100%	100%	100%		control of rice blast ([1]; 2.8 mg/L): 100%; control of corn rust [3]: 100%; control of cucumber downy mildew ([5]; 25 mg/L): 100%
COC=C(C(=O)OC)c1ccccc1COc1cc(C(F)(F)F)nc(Nc2ccccc2)n1 [Compound 20]	100%	100%	100%	100%	100%	100%	100%	inhibition activity on carmine spider mite eggs ([6]; 5 mg/L): 80%; inhibition activity on carmine spider mite eggs ([6]; 10 mg/L): 100%; control on nymph of carmine spider mite ([7]; 10 mg/L): 90%; control on nymph of carmine spider mite ([7]; 20 mg/L): 100%; control of rice blast ([1]; 2.8 mg/L): 100%; control of mite ([8]; 150 mg/L): 100%
COC=C(C(=O)OC)c1ccccc1COc1cc(C2CC2)nc(Nc2ccccc2)n1 [Compound 25]	about 80%	100%	100%	100%	100%	100%	100%	control of diamond backmoth [9]: 100%; control of corn rust [3]: 100%; control of cucumber downy mildew ([5]; 25 mg/L): 100%
COC=C(C(=O)OC)c1ccccc1COc1nc(Nc2ccccc2)nc(C)c1C [Compound 41]	about 80%	100%	100%	100%	100%	100%		control of rice blast ([1]; 2.8 mg/L): about 80%; control of corn rust [3]: 100%; control of cucumber downy mildew ([5]; 25 mg/L): 100%
CO/N=C(/C(=O)OC)c1ccccc1COc1cc(C(F)(F)F)nc(Nc2ccccc2)n1 [Compound 229]	about 80%		100%			100%	100%	control of armyworm [10]: 100%
CON=C(C(=O)OC)c1ccccc1COc1cc(C2CC2)nc(Nc2ccccc2)n1 [Compound 232]	about 80%	100%	100%		100%	100%		
COC(=O)N(OC)c1ccccc1COc1cc(C(F)(F)F)nc(Nc2ccccc2)n1 [Compound 424]			100%		100%	100%		control of armyworm [10]: 100%
CNC(=O)N(OC)c1ccccc1COc1cc(Br)nc(Nc2ccccc2)n1 [Compound 475]	about 80%	100%						control of armyworm [10]: 100%
COC(=O)N(OC)c1ccccc1COc1cc(C2CC2)nc(Nc2ccccc2)n1 [Compound 664]	about 80%	100%	100%			100%		
CNC(=O)C(=NOC)c1ccccc1COc1cc(C2CC2)nc(Nc2ccccc2)n1 [Compound 665]	about 80%			100%				control of corn rust [3]: 100%
CNC(=O)N(OC)c1ccccc1COc1cc(C2CC2)nc(Nc2ccccc2)n1 [Compound 666]	100%							
CON=C(C(=O)OC)c1ccccc1COc1nc(Nc2ccccc2)nc(C)c1C [Compound 667]	100%	100%	100%		100%	100%		control of diamond backmoth [9]: 100%; control of rice blast ([1]; 2.8 mg/L): about 80%; control of cucumber grey mold [11]: about 50%
COC(=O)N(OC)c1ccccc1COc1nc(Nc2ccccc2)nc(C)c1C [Compound 668]	about 80%	100%	100%		100%	100%		
CNC(=O)C(=NOC)c1ccccc1COc1nc(Nc2ccccc2)nc(C)c1C [Compound 669]				100%				control of corn rust [3]: 100%
CNC(=O)N(OC)c1ccccc1COc1nc(Nc2ccccc2)nc(C)c1C [Compound 670]	about 80%			100%				
CON=C(C(=O)OC)c1ccccc1COc1cc(C)nc(Nc2ccccc2)n1 [Compound 676]	100%							control of rice blast ([1]; 2.8 mg/L): about 80%
COC(=O)N(OC)c1ccccc1COc1cc(C)nc(Nc2ccccc2)n1 [Compound 677]	100%			100%				
CNC(=O)C(=NOC)c1ccccc1COc1cc(C)nc(Nc2ccccc2)n1 [Compound 678]				100%				
COC=C(C(=O)OC)c1ccccc1COc1cc(C(F)(F)F)nc(N(C)C)n1 [Compound 680]								control of wheat powdery mildew ([12]; 25 mg/L): 98%; control of wheat powdery mildew ([12]; 400 mg/L): 100%
COC=C(C(=O)OC)c1ccccc1COc1cc(C(F)(F)F)nc(NC(C)C)n1 [Compound 682]							100%	
COC=C(C(=O)OC)c1ccccc1COc1cc(C(F)(F)F)nc(Nc2cccnc2Cl)n1 [Compound 691]							100%	control of mite ([8]; 40 mg/L): 100%
COC=C(C(=O)OC)c1ccccc1COc1cc(C(F)(F)F)nc(Nc2ccc(C)cc2C)n1 [Compound 693]							100%	
COC=C(C(=O)OC)c1ccccc1COc1cc(C(F)(F)F)nc(Nc2cccc(Cl)c2Cl)n1 [Compound 694]							100%	control of mite ([8]; 40 mg/L): 100%
COC=C(C(=O)OC)c1ccccc1COc1cc(C(F)(F)F)nc(Nc2ccc(C)c(C)c2)n1 [Compound 697]							100%	
COC=C(C(=O)OC)c1ccccc1COc1cc(C(F)(F)F)nc(NC2CCCCC2)n1 [Compound 701]								control of mite ([8]; 40 mg/L): 100%
